Experimental data taken from patent US20230286973A1, “PROTEIN SECRETION INHIBITORS” (KEZAR LIFE SCIENCES, priority 2020, published 2023).

Key:
[1] = Liver Microsome Stability Assay (monkey); conditions: monkey liver microsomes, with NADPH, 1.0 uM compound
Protocol: (§1) Stability of a compound was assessed in the presence of liver microsomes from various sources—mouse, rat, monkey and human liver microsomes. 1.0 uM compound, 0.4% DMSO in 0.1 M Potassium Phosphate with 1.0 mg/mL liver microsomes, were incubated at 37° C. with or without 1 mM NADPH. The samples were quenched at 0, and 30 minutes.

[2] = Liver Microsome Stability Assay (human); conditions: human liver microsomes, with NADPH, 1.0 uM compound
Protocol: as §1

[3] = system: PD1-ss+10aa/Gaussia Luciferase; assay: Dox-Induced PD1-ss-Gluc Assay; format: cell-based; conditions: 24 hr Dox induction; 293FRT/TO cells; read-out: 24 hr Dox Inducible PD1ssGluc 293FRT/TO: Mean IC50
In short: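 Flp-In 293 T-REx cells stably carrying a doxycycline-inducible Gaussia luciferase fused to the PD1 signal sequence plus 10 aa were plated the day before. Compound dilutions in DMSO/media containing doxycycline were then added and incubated at 37 °C, 5% CO2. Data for undefined stereochemistry refer to stereoisomer mixtures.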

[4] = system: TNFα-FL/Gaussia Luciferase; assay: Dox Induced TNFα-FL-Gluc Assay; format: cell-based; conditions: for IC50: 24 hr Dox induction, 293FRT/TO cells, read-out: 24 hr Dox Inducible TNFaFLGluc 293FRT/TO: Mean IC50; for 24 hr Dox Inducible TNFaFLGluc 293FRT/TO: TNF/PD1: ratio of TNFaFLGluc IC50 to PD1ssGluc IC50
In short: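 Hygromycin/blasticidin-selected Flp-In 293 T-REx cells, TNFα-FL/Gaussia luciferase fusion under T-REx control; overnight plating, then compound in DMSO/media with doxycycline at 37 °C, 5% CO2; stereo-undefined structures tested as mixtures.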

[5] = system: IL-2-FL/Gaussia Luciferase; assay: Dox Induced IL2-FL-Gluc Assay; format: cell-based; conditions: for IC50: 24 hr Dox induction, 293FRT/TO cells, read-out: 24 hr Dox Inducible IL2FLGluc 293FRT/TO: Mean IC50; for 24 hr Dox Inducible IL2FLGluc 293FRT/TO: IL2/PD1: ratio of IL2FLGluc IC50 to PD1ssGluc IC50
In short: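 A hygromycin- and blasticidin-resistant 293 T-REx clone carrying inducible IL-2–Gaussia luciferase (full-length IL-2, residues 1-153) serves as the cell system. After overnight plating, the cells get test compounds together with doxycycline in DMSO/media and are incubated at 37° C, 5% CO2.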

[6] = Liver Microsome Stability Assay (mouse); conditions: mouse liver microsomes, with NADPH, 1.0 uM compound
Protocol: as §1

[7] = Liver Microsome Stability Assay (rat); conditions: rat liver microsomes, with NADPH, 1.0 uM compound
Protocol: as §1

[8] = system: multiple myeloma cell line NCI-H929; assay: H929 Cell Viability Assay; format: cell-based, human; conditions: Homo sapiens, NCI-H929, 48 h, NCI-H929 cells, Celltiter-Glo
In short: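 A 48-hour compound treatment of cells in 10% FBS RPMI medium was followed by luciferase-based viability quantification.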

[9] = system: multiple myeloma cell line U266B1; assay: U266 Cell Viability Assay; format: cell-based, human; conditions: Homo sapiens, U-266, 48 h, U266B1 cells, Celltiter-Glo
In short: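 After growth in serum-supplemented RPMI 1640, cells received serially diluted compound in DMSO/media and were kept 48 hours before a CellTiter-Glo luminescence readout.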

[10] = system: HER3-ss+4aa/Gaussia Luciferase; assay: Dox-Induced Her3-ss-Gluc Assay; format: cell-based; conditions: 24 hr Dox induction; 293FRT/TO cells; read-out: 24 hr Dox Inducible Her3(ss + 4)Gluc 293FRT/TO: Mean IC50
In short: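 Doxycycline-inducible HER3 signal sequence+4aa/Gaussia luciferase construct, stably integrated in Flp-In 293 T-REx cells; compound dilutions applied with doxycycline at 37° C., 5% CO2.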

Structure (SMILES)	Liver Microsome Stability (Multiple Species): Monkey - % Remaining after 30 min w/NADPH [1] [%]	Liver Microsome Stability (Multiple Species): Human - % Remaining after 30 min w/NADPH [2] [%]	IC50 [3] [µM]	IC50 [4] [µM]	24 hr Dox Inducible TNFaFLGluc 293FRT/TO: TNF/PD1 [4]	IC50 [5] [µM]	24 hr Dox Inducible IL2FLGluc 293FRT/TO: IL2/PD1 [5]	Liver Microsome Stability (Multiple Species): Mouse - % Remaining after 30 min w/NADPH [6] [%]	Liver Microsome Stability (Multiple Species): Rat - % Remaining after 30 min w/NADPH [7] [%]	EC50 [8] [µM]	EC50 [9] [µM]	IC50 [10] [µM]
CC(=O)N1CCC(Oc2c(F)cc(N3CCC[C@@H]3c3csc(NC(=O)c4cccn4Cc4ccnc(F)c4)n3)cc2F)CC1 [Compound A106, (R)-N-(4-(1-(4-((1-acetylpiperidin-4-yl)oxy)-3,5-difluorophenyl)pyrrolidin-2-yl)thiazol-2-yl)-1-((2-fluoropyridin-4-yl)methyl)-1H-pyrrole-2-carboxamide]	0.35	2.95	0.0163	0.12	7.32	0.0262	1.6	1.43	3.12	0.472	> 25	0.0156
O=C(Nc1nc([C@H]2CCCN2c2ccc(OC3CCNCC3F)cc2)cs1)c1cccn1Cc1ccnc(F)c1 (stereo partly drawn) [Compound A107, N-(4-((2R)-1-(4-((3-fluoropiperidin-4-yl)oxy)phenyl)pyrrolidin-2-yl)thiazol-2-yl)-1-((2-fluoropyridin-4-yl)methyl)-1H-pyrrole-2-carboxamide]	12.7	23.1	0.205	2.91	14.2	0.462	2.3	6	64.6	4.55	7.28	0.322
CC(=O)N1CCC(Oc2ccc(N3CCC[C@@H]3c3csc(NC(=O)c4cccn4Cc4ccnc(F)c4)n3)cc2)C(F)C1 (stereo partly drawn) [Compound A108, N-(4-((2R)-1-(4-((1-acetyl-3-fluoropiperidin-4-yl)oxy)phenyl)pyrrolidin-2-yl)thiazol-2-yl)-1-((2-fluoropyridin-4-yl)methyl)-1H-pyrrole-2-carboxamide]	0.49	13.2	0.0337	0.283	8.39	0.0713	2.1	17	39	1.28	> 25	0.0729
O=C(Nc1nc([C@H]2CCCN2c2ccc(OC3CN(C(=O)C4CC4)C3)cc2)cs1)c1cccn1Cc1ccnc(F)c1 [Compound A109, (R)-N-(4-(1-(4-((1-(cyclopropanecarbonyl)azetidin-3-yl)oxy)phenyl)pyrrolidin-2-yl)thiazol-2-yl)-1-((2-fluoropyridin-4-yl)methyl)-1H-pyrrole-2-carboxamide]	2.02	13.8	0.031	0.302	9.75	0.0907	2.9	21	55.6	1.23	> 25	0.0393
